Legend:
Test in all cases: cells
[1] = system: SK-UT-1; type: functional, cell-based, Homo sapiens; conditions: Homo sapiens, SK-UT-1;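 further: growth inhibition of SK-UT-1 cells, measured by a cell viability assay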
Description: SANGER: Inhibition of human SK-UT-1 cell growth in a cell viability assay.

[2] = system: HCC1806; type: functional, cell-based, Homo sapiens; conditions: Homo sapiens, HCC1806;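 further: growth inhibition of the cancer cell line, determined with a cell viability assay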
Description: SANGER: Inhibition of human HCC1806 cell growth in a cell viability assay.

[3] = system: HCC1419; type: functional, cell-based, Homo sapiens; conditions: Homo sapiens, HCC1419;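 further: growth inhibition of human HCC1419 cells, read out as cell viability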
Description: SANGER: Inhibition of human HCC1419 cell growth in a cell viability assay.

[4] = system: MeWo; type: functional, cell-based, Homo sapiens; conditions: Homo sapiens, MeWo;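 further: growth inhibition of MeWo cells, determined by a cell viability readout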
Description: SANGER: Inhibition of human Mewo cell growth in a cell viability assay.

[5] = system: NCI-H1755; type: functional, cell-based, Homo sapiens; conditions: Homo sapiens, NCI-H1755;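 further: cell viability readout used to measure growth inhibition of NCI-H1755 cells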
Description: SANGER: Inhibition of human NCI-H1755 cell growth in a cell viability assay.

[6] = system: LCLC-103H cell line; type: functional, cell-based, Homo sapiens; conditions: Homo sapiens, LCLC-103H
Description: SANGER: Inhibition of human LCLC-103H cell growth in a cell viability assay.

[7] = system: LS-1034; type: functional, cell-based, Homo sapiens; conditions: Homo sapiens, LS-1034
Description: SANGER: Inhibition of human LS-1034 cell growth in a cell viability assay.

[8] = system: OMC-1; type: functional, cell-based, Homo sapiens; conditions: Homo sapiens, OMC-1;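 further: growth inhibition of the OMC-1 cell line, measured by a cell viability assay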
Description: SANGER: Inhibition of human OMC-1 cell growth in a cell viability assay.

[9] = system: U-251; type: functional, cell-based, Homo sapiens; conditions: Homo sapiens, U-251;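 further: growth inhibition of human U-251 cells, read out through a cell viability assay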
Description: SANGER: Inhibition of human U251 cell growth in a cell viability assay.

[10] = system: A2780; type: functional, cell-based, Homo sapiens; conditions: Homo sapiens, A2780;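 further: growth inhibition of A2780 cells, read out with a cell viability assay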
Description: SANGER: Inhibition of human A2780 cell growth in a cell viability assay.

[11] = system: KP-4; type: functional, cell-based, Homo sapiens; conditions: Homo sapiens, KP-4; read-out: IC50;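 further: human KP-4 cells, with growth inhibition read out through a cell viability assay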
Description: SANGER: Inhibition of human KP-4 cell growth in a cell viability assay.

[12] = system: CWR22R; type: functional, cell-based, Homo sapiens; conditions: Homo sapiens, 22Rv1;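 further: growth inhibition of 22Rv1 cells, read out with a cell viability assay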
Description: SANGER: Inhibition of human 22RV1 cell growth in a cell viability assay.

[13] = system: HT1197; type: functional, cell-based, Homo sapiens, HT-1197; conditions: Homo sapiens, HT1197
Description: SANGER: Inhibition of human HT-1197 cell growth in a cell viability assay.

[14] = system: Ramos-2G6-4C10; type: functional, cell-based; conditions: Homo sapiens;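 further: growth inhibition of the cell line, measured by a cell viability read-out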
Description: SANGER: Inhibition of human Ramos-2G6-4C10 cell growth in a cell viability assay.

[15] = system: H4; type: functional, cell-based; conditions: Homo sapiens
Description: SANGER: Inhibition of human H4 cell growth in a cell viability assay.

[16] = system: U-266; type: functional, cell-based; conditions: Homo sapiens
Description: SANGER: Inhibition of human U-266 cell growth in a cell viability assay.

[17] = system: NCI-H1838; type: functional, cell-based, Homo sapiens; conditions: Homo sapiens, NCI-H1838;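 further: growth inhibition of NCI-H1838 cells, determined with a cell viability readout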
Description: SANGER: Inhibition of human NCI-H1838 cell growth in a cell viability assay.

[18] = system: SCC-9; type: functional, cell-based, Homo sapiens; conditions: Homo sapiens, SCC-9;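 further: Read-out is a cell viability assay, with values giving inhibition of cell growth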
Description: SANGER: Inhibition of human SCC-9 cell growth in a cell viability assay.

[19] = system: HMV-2 cell line; type: functional, cell-based, Homo sapiens; conditions: Homo sapiens, HMV-2;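 further: growth inhibition of HMV-II cells, read out with a cell viability assay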
Description: SANGER: Inhibition of human HMV-II cell growth in a cell viability assay.

[20] = system: SK-NEP-1; type: functional, cell-based; conditions: Homo sapiens;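 further: growth inhibition of human SK-NEP-1 cells, read out by a cell viability assay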
Description: SANGER: Inhibition of human SK-NEP-1 cell growth in a cell viability assay.

[21] = system: KP-N-YN; type: functional, cell-based; conditions: Homo sapiens;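 further: growth inhibition of KP-N-YN cells, read out with a cell viability assay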
Description: SANGER: Inhibition of human KP-N-YN cell growth in a cell viability assay.

[22] = system: HCC1569; type: functional, cell-based, Homo sapiens; conditions: Homo sapiens, HCC1569;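 further: growth inhibition of human HCC1569 cells, read out with a cell viability assay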
Description: SANGER: Inhibition of human HCC1569 cell growth in a cell viability assay.

[23] = system: Calu-3; type: functional, cell-based, Homo sapiens; conditions: Homo sapiens, Calu-3;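 further: growth inhibition of human Calu-3 cells, determined with a cell viability assay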
Description: SANGER: Inhibition of human Calu-3 cell growth in a cell viability assay.

[24] = system: SK-MES-1; type: functional, cell-based, Homo sapiens; conditions: Homo sapiens, SK-MES-1;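 further: growth inhibition of human SK-MES-1 cells, read out with a cell viability assay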
Description: SANGER: Inhibition of human SK-MES-1 cell growth in a cell viability assay.

[25] = system: PC-14; type: functional, cell-based, Homo sapiens; conditions: Homo sapiens, PC-14;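 further: cell viability assay measuring inhibition of PC-14 cell growth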
Description: SANGER: Inhibition of human PC-14 cell growth in a cell viability assay.

[26] = system: HL-60; type: functional, cell-based; conditions: Homo sapiens;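 further: growth inhibition of human HL-60 cells, read out with a cell viability assay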
Description: SANGER: Inhibition of human HL-60 cell growth in a cell viability assay.

[27] = system: SCC-4; type: functional, cell-based, Homo sapiens; conditions: Homo sapiens, SCC-4;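 further: growth inhibition of human SCC-4 cells, read out as cell viability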
Description: SANGER: Inhibition of human SCC-4 cell growth in a cell viability assay.

[28] = system: OVCAR-4; type: functional, cell-based, Homo sapiens; conditions: Homo sapiens, OVCAR-4;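 further: growth inhibition of human OVCAR-4 cells, measured with a cell viability assay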
Description: SANGER: Inhibition of human OVCAR-4 cell growth in a cell viability assay.

[29] = system: ChaGo-K-1; type: functional, cell-based; conditions: Homo sapiens;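 further: growth inhibition of ChaGo-K-1 cells, read out with a cell viability assay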
Description: SANGER: Inhibition of human ChaGo-K-1 cell growth in a cell viability assay.

[30] = system: DOHH-2; type: functional, cell-based; conditions: Homo sapiens;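 further: growth inhibition of human DOHH-2 cells, read out with a cell viability assay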
Description: SANGER: Inhibition of human DOHH-2 cell growth in a cell viability assay.

[31] = system: NB10; type: functional, cell-based, Homo sapiens; conditions: Homo sapiens, NB10;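 further: growth inhibition of NB10 cells, read out by a cell viability assay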
Description: SANGER: Inhibition of human NB10 cell growth in a cell viability assay.

[32] = system: BE-13; type: functional, cell-based; conditions: Homo sapiens;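 further: growth inhibition of human BE-13 cells, measured with a cell viability assay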
Description: SANGER: Inhibition of human BE-13 cell growth in a cell viability assay.

[33] = system: SW1710; type: functional, cell-based, Homo sapiens; conditions: Homo sapiens, SW1710;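 further: growth inhibition of SW1710 cells, determined with a cell viability assay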
Description: SANGER: Inhibition of human SW1710 cell growth in a cell viability assay.

[34] = system: A101D; type: functional, cell-based, Homo sapiens; conditions: Homo sapiens, A101D;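 further: growth inhibition of the cell line, measured with a viability assay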
Description: SANGER: Inhibition of human A101D cell growth in a cell viability assay.

[35] = system: SW756; type: functional, cell-based, Homo sapiens; conditions: Homo sapiens, SW756;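 further: growth inhibition of human SW756 cells, read out with a cell viability assay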
Description: SANGER: Inhibition of human SW756 cell growth in a cell viability assay.

[36] = system: MHH-ES-1; type: functional, cell-based, Homo sapiens; conditions: Homo sapiens, MHH-ES-1;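 further: cell growth inhibition measured by a cell viability assay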
Description: SANGER: Inhibition of human MHH-ES-1 cell growth in a cell viability assay.

[37] = system: UMC-11; type: functional, cell-based, Homo sapiens; conditions: Homo sapiens, UMC-11;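 further: growth inhibition of UMC-11 cells, read out with a cell viability assay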
Description: SANGER: Inhibition of human UMC-11 cell growth in a cell viability assay.

[38] = system: ES3; type: functional, cell-based, Homo sapiens; conditions: Homo sapiens, ES3;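 further: growth inhibition of ES3 cells, read out with a cell viability assay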
Description: SANGER: Inhibition of human ES3 cell growth in a cell viability assay.

[39] = system: T-24; type: functional, cell-based, Homo sapiens; conditions: Homo sapiens, T-24;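 further: growth inhibition of T-24 cells, read out with a cell viability assay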
Description: SANGER: Inhibition of human T-24 cell growth in a cell viability assay.

[40] = system: CaR-1; type: functional, cell-based, Homo sapiens; conditions: Homo sapiens, CaR-1;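 further: growth inhibition of human CaR-1 cancer cells, read out with a cell viability assay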
Description: SANGER: Inhibition of human CaR-1 cell growth in a cell viability assay.

[41] = system: KNS-42; type: functional, cell-based, Homo sapiens; conditions: Homo sapiens, KNS-42;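 further: growth inhibition of KNS-42 cells, read out with a cell viability assay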
Description: SANGER: Inhibition of human KNS-42 cell growth in a cell viability assay.

[42] = system: BT-474; type: functional, cell-based, Homo sapiens; conditions: Homo sapiens, BT-474
Description: SANGER: Inhibition of human BT-474 cell growth in a cell viability assay.

[43] = system: GP5d; type: functional, cell-based, Homo sapiens; conditions: Homo sapiens, GP5d;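 further: growth inhibition of human GP5d cells, read out with a cell viability assay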
Description: SANGER: Inhibition of human GP5d cell growth in a cell viability assay.

[44] = system: SKG-IIIa; type: functional, cell-based, Homo sapiens; conditions: Homo sapiens, SKG-IIIa;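 further: cell growth inhibition, read out with a cell viability assay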
Description: SANGER: Inhibition of human SKG-IIIa cell growth in a cell viability assay.

[45] = system: KYSE-450; type: functional, cell-based; conditions: Homo sapiens;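 further: cell growth inhibition measured by a viability assay in human KYSE-450 cells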
Description: SANGER: Inhibition of human KYSE-450 cell growth in a cell viability assay.

[46] = system: C-33-A; type: functional, cell-based, Homo sapiens; conditions: Homo sapiens, C-33-A;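 further: cell viability assay measuring growth inhibition of C-33-A cells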
Description: SANGER: Inhibition of human C-33-A cell growth in a cell viability assay.

[47] = system: A-427; type: functional, cell-based, Homo sapiens; conditions: Homo sapiens, A-427;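 further: growth inhibition of human A-427 cells, read out by a cell viability assay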
Description: SANGER: Inhibition of human A427 cell growth in a cell viability assay.

[48] = system: LK-2; type: functional, cell-based, Homo sapiens; conditions: Homo sapiens, LK-2;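 further: growth inhibition of LK-2 cells, read out with a viability assay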
Description: SANGER: Inhibition of human LK-2 cell growth in a cell viability assay.

[49] = system: NCI-H520; type: functional, cell-based, Homo sapiens; conditions: Homo sapiens, NCI-H520;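 further: growth inhibition of NCI-H520 cells, measured by a cell viability assay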
Description: SANGER: Inhibition of human NCI-H520 cell growth in a cell viability assay.

[50] = system: BXPC-3; type: functional, cell-based, Homo sapiens; conditions: Homo sapiens, BXPC-3;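 further: growth inhibition of human BxPC-3 cells, read out by a cell viability assay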
Description: SANGER: Inhibition of human BxPC-3 cell growth in a cell viability assay.

With `CN(Cc1cnc2nc(N)nc(N)c2n1)c1ccc(C(=O)N[C@@H](CCC(=O)O)C(=O)O)cc1` [METHOTREXATE] as the compound, how does the IC50 [1] read?
The IC50 was over 200 nM.

And the IC50 [2]?
Its IC50 is over 200 nM.

What about the IC50 [3] of the same compound?
Its IC50 is over 200 nM.

And the IC50 [4]?
The IC50 was over 200 nM.

And the IC50 [5]?
Its IC50 is over 200 nM.

What about the IC50 [6] of the same compound?
The IC50 was 174 nM.

And the IC50 [7]?
The IC50 was over 200 nM.

What about the IC50 [8] of the same compound?
The IC50 was over 200 nM.

And the IC50 [9]?
The IC50 was over 200 nM.

And the IC50 [10]?
The IC50 was 54.5 nM.

And the IC50 [11]?
The IC50 was over 200 nM.

And the IC50 [12]?
The IC50 was over 200 nM.

What about the IC50 [13] of the same compound?
Its IC50 is over 200 nM.

And the IC50 [14]?
Its IC50 is 26.9 nM.

What about the IC50 [15] of the same compound?
The IC50 was over 200 nM.

What about the IC50 [16] of the same compound?
Its IC50 is over 200 nM.

And the IC50 [17]?
The IC50 was over 200 nM.

And the IC50 [18]?
The IC50 was over 200 nM.

What about the IC50 [19] of the same compound?
Its IC50 is over 200 nM.

And the IC50 [20]?
Its IC50 is 4.82 nM.

And the IC50 [21]?
Its IC50 is over 200 nM.

What about the IC50 [22] of the same compound?
The IC50 was over 200 nM.

And the IC50 [23]?
The IC50 was over 200 nM.

What about the IC50 [24] of the same compound?
The IC50 was over 200 nM.

What about the IC50 [25] of the same compound?
Its IC50 is over 200 nM.

And the IC50 [26]?
Its IC50 is 24.8 nM.

And the IC50 [27]?
The IC50 was over 200 nM.

And the IC50 [28]?
The IC50 was over 200 nM.

And the IC50 [29]?
Its IC50 is over 200 nM.

And the IC50 [30]?
The IC50 was 21.6 nM.

And the IC50 [31]?
Its IC50 is over 200 nM.

What about the IC50 [32] of the same compound?
The IC50 was 38.7 nM.

And the IC50 [33]?
Its IC50 is over 200 nM.

And the IC50 [34]?
Its IC50 is over 200 nM.

What about the IC50 [35] of the same compound?
Its IC50 is over 200 nM.

And the IC50 [36]?
The IC50 was 107 nM.

And the IC50 [37]?
Its IC50 is over 200 nM.

What about the IC50 [38] of the same compound?
The IC50 was over 200 nM.

What about the IC50 [39] of the same compound?
Its IC50 is over 200 nM.

What about the IC50 [40] of the same compound?
The IC50 was over 200 nM.

What about the IC50 [41] of the same compound?
The IC50 was over 200 nM.

And the IC50 [42]?
The IC50 was over 200 nM.

And the IC50 [43]?
The IC50 was over 200 nM.

What about the IC50 [44] of the same compound?
The IC50 was over 200 nM.

And the IC50 [45]?
Its IC50 is over 200 nM.

What about the IC50 [46] of the same compound?
The IC50 was over 200 nM.

What about the IC50 [47] of the same compound?
The IC50 was over 200 nM.

And the IC50 [48]?
The IC50 was over 200 nM.

What about the IC50 [49] of the same compound?
Its IC50 is over 200 nM.

And the IC50 [50]?
The IC50 was over 200 nM.

— ChEMBL document CHEMBL1201861, “Genomics of Drug Sensitity in Cancer screening data, Wellcome Trust Sanger Institute”
